Data from US7579376B2, “Geranyl compounds” (Ohgen Research Laboratories, Ltd., priority 2002, dated 2009).

How the values were obtained:
[1] = system: HuH-7 cells (dendriform cell strain of human hepatoma); test: Measurement of antitumor effect: HuH-7 carcinoma pieces hypodermically implanted in nude mice, carcinomas weighed after administration; assay type: in vivo; details: Huh-7, ip, 504 h, carcinoma weight relative to control group (100%), 250 μg/mouse intraperitoneally in corn oil once per day for 3 weeks, starting a week after implantation
Description: Measurement of Antitumor Effect
(§1) Carcinoma of HuH-7 cells (dendriform cell strain of human hepatoma) hypodermically implanted or subimplanted in the backs of 5-weeks old female nude mice (BALB/c, Ninox) was aseptically taken out and crushed into 5×5 mm sized pieces in a phosphate buffer solution (PBS), a piece of which then being hypodermically implanted in the backs of the nude mice.
(§2) Each test substance was dissolved in corn oil, and the solution was intraperitoneally administered to the nude mice consecutively once per day at a rate of 250 μg/mouse for 3 weeks, starting from a week after the implantation. After termination of the administration, the carcinomas were taken out and weighed to calculate the antitumor effect and the mice' weight loss by the following equations. For the test six mice per group were used, and the group administered with the solvent (corn oil) alone was made the control group:
(§3) Evaluations of antitumor effect and weight loss were conducted according to the following standard, where the control group values were held to be 100%.
• −: >100%, +/−: 100˜75%, +: 75˜50%, ++: 50˜25%, +++: 25˜0% Weight Loss • −: >110%, +/−: 110˜100%, +: 100˜95%, ++: 95˜90%, +++: <90% Death Rate (Death Rate During the Test Period) • −: none • +/−: death occurred with high concentration administration (500 μg/mouse) • +: 1-3 mice dead • ++: 3-5 mice dead • +++: all 6 mice dead Synthetic Evaluation • −: weak antitumor effect and very strong toxicity against host mice • +/−: weak antitumor effect recognizable and toxicity against host mice also observable • +: a fixed level of antitumor effect observable but toxicity against host mice also strong • ++: strong antitumor effect observed and toxicity against host mice week • +++: strong antitumor effect observed and no toxicity against host mice

[2] = Toxicity against host mice (weight loss, death rate) in the HuH-7 antitumor test; assay type: in vivo; details: 250 μg/mouse intraperitoneally once per day for 3 weeks, six mice per group; for Toxicity Death rate: death rate during the test period; for Toxicity Weight loss: mouse weight relative to control group (100%)
Description: as §1, §2, §3

In the case of `CC(C)=CCC/C(C)=C/C(=O)NC1C(O)OC(CO)C(O)C1O` (stereo not drawn), the response vs control in vivo at 0.25 mg [1] is reported as 0 to 25%, the “Toxicity Death rate” value [2] is reported as “−” and the “Toxicity Weight loss” value [2] is reported as “+ (100˜95%)”.

With `CC(O)(CCO)CC(=O)NC1C(O)OC(CO)C(O)C1O` (stereo not drawn) the response vs control in vivo at 0.25 mg [1] was 25 to 50%, the “Toxicity Death rate” value [2] was “−” and the “Toxicity Weight loss” value [2] was “+/− (110˜100%)”.

In the case of `CC(C)=CCC/C(C)=C/CNC(=O)/C=C/C(=O)NC/C=C(\C)CCC=C(C)C` [N,N′-digeranylfumaric diamide, N,N′-digeranylfumaric Diamide], the response vs control in vivo at 0.25 mg [1] is reported as 25 to 50%, the “Toxicity Death rate” value [2] is reported as “−” and the “Toxicity Weight loss” value [2] is reported as “+/− (110˜100%)”.

For `CC(C)=CCC/C(C)=C/CNC(=O)CC(O)C(=O)NC/C=C(\C)CCC=C(C)C` (stereo not drawn) [N,N′-digeranylmalic diamide, N,N′-digeranylmalic Diamide], the response vs control in vivo at 0.25 mg [1] was 50 to 75%, the “Toxicity Death rate” value [2] was “−” and the “Toxicity Weight loss” value [2] was “+ (100˜95%)”.

With `CC(=O)N[C@@H](Cc1ccc(O)cc1)C(=O)NC/C=C(\C)CCC=C(C)C` [N-acetyltyrosine geranylamide, N-acetyltyrosine Geranylamide] the response vs control in vivo at 0.25 mg [1] was 50 to 75%, the “Toxicity Death rate” value [2] was “−” and the “Toxicity Weight loss” value [2] was “+/− (110˜100%)”.

In the case of `CC(C)=CCC/C(C)=C/C(=O)NC1C(O)OC(C)C(O)C1O` (stereo not drawn) [N-fucosegeranamide], the response vs control in vivo at 0.25 mg [1] is reported as 25 to 50%, the “Toxicity Death rate” value [2] is reported as “−” and the “Toxicity Weight loss” value [2] is reported as “+/− (110˜100%)”.

For `CC(C)=CCC/C(C)=C/C(=O)N[C@@H](Cc1ccc(O)cc1)C(=O)O` [N-geranoyltyrosine], the response vs control in vivo at 0.25 mg [1] was 25 to 50%, the “Toxicity Death rate” value [2] was “−” and the “Toxicity Weight loss” value [2] was “+/− (110˜100%)”.

For `CC(C)=CCC/C(C)=C/CNC(=O)C1OC(O)C(O)C(O)C1O` (stereo not drawn) [N-geranyl galacturonamide, N-geranylgalacturonamide], the response vs control in vivo at 0.25 mg [1] was 0 to 25%, the “Toxicity Death rate” value [2] was “+/−” and the “Toxicity Weight loss” value [2] was “+/− (110˜100%)”.

With `CC(=O)C(=O)Nc1ccc(C(=O)NC/C=C(\C)CCC=C(C)C)cc1` [N-geranyl-4-pyruvoaminobenzamide, N-geranyl-p-pyruvoaminobenzamide] the response vs control in vivo at 0.25 mg [1] was 25 to 50%, the “Toxicity Death rate” value [2] was “−” and the “Toxicity Weight loss” value [2] was “− (>110%)”.

In the case of `CC(C)=CCC/C(C)=C/CNC(=O)[C@@H](N)Cc1ccc(O)cc1` [Tyrosine geranylamide, Tyrosine Geranylamide], the response vs control in vivo at 0.25 mg [1] is reported as 50 to 75%, the “Toxicity Death rate” value [2] is reported as “−” and the “Toxicity Weight loss” value [2] is reported as “+/− (110˜100%)”.
